Results taken from PubChem BioAssay AID1963973 (Molecular Pharmacology Branch, DTP, NCI, 2024).
Each block holds one molecule with its values, some of them ahead of it.

Tested on: 883617-216-R-J1-PDC tumor spheroids, viability
Assay: Anticancer human tumor 883617-216-R-J1-PDC patient-derived bladder carcinoma cell line growth inhibition [PI3K]
Conditions: spheroids with HUVEC and MSC; for IC50: curve of first compound; for viability, T/C: stronger effect = lower value
Description: Combinatorial screen of targeted agents with the PI3K inhibitors inavolisib, alpelisib, duvelisib, and copanlisib in multi-cell type tumor spheroids
A high-throughput screen of multi-cell type tumor spheroids was designed to identify active combinations of targeted small molecules and PI3K pathway inhibitors. Complex spheroids include a stromal component modeled by human endothelial cells (HUVEC) and fibroblasts modeled by human mesenchymal stem cells (MSCs). The concentration ranges selected for each drug and investigational agent were based upon clinically achievable concentrations if the clinical Cmax of the agent was known.
Compounds. The drugs and investigational agents: inavolisib (NSC800729), alpelisib (NSC765974), duvelisib (NSC772469), copanlisib (NSC816437), ipatasertib (NSC767898), afuresertib (NSC778305), talazoparib (NSC767125), sapanisertib (NSC764658), selumetinib (NSC741078), tovorafenib (DAY101, NSC766906), vemurafenib (NSC761431), ravoxertinib (NSC781343), sotorasib (NSC818433), MRTX1133 (NSC 836407), abemaciclib (NSC 768073), palbociclib (NSC758247), venetoclax (NSC 766270), SY5609 (NSC837396), enzalutamide (NSC755605), and darolutamide (NSC825331), were obtained from the National Cancer Institute (NCI) Developmental Therapeutics Program Chemical Repository. The FDA-approved anticancer drug set is available from the NCI Developmental Therapeutics Program. […] The stock solutions were prepared in dimethyl sulfoxide (DMSO, Sigma-Aldrich, St. Louis, MO, cat. D2650) at 800-fold the tested concentration and stored at -70 degrees C prior to their use. All drugs and investigational agents were tested over a range starting from a high concentration at or near the clinical Cmax and decreasing in half-log increments. If the clinical Cmax for an agent had not been determined, the highest concentration tested was 10 microM.
Cell Culture. All cells were maintained in an incubator at 37 degrees C and 5% CO2 with 95% humidity. The PDC lines were cultured according to standard operating procedures established by the NCI PDMR (https://pdmr.cancer.gov/sops/default.htm). All PDCs were thawed and cultured in Matrigel-coated flasks prepared with a working solution of 1X Ham's F-12 nutrient mix, without supplementation (Invitrogen, Waltham, MA, cat. 11765054), 100 U/mL penicillin-streptomycin (Invitrogen, cat. 15140122), and 2.5% Matrigel (Corning Inc., Corning, NY, cat. 354248) for the first three passages. The 354836-022-R-J1-PDC, 475296-252-R-J1-PDC, and 997726-040-R-J2-PDC lines were cultured in 6A media, which includes advanced DMEM/F-12 (Thermo Fisher Scientific, cat. 12634028), 10 mM HEPES (Thermo Fisher Scientific, cat. 15630080), 1X GlutaMAX supplement (Thermo Fisher Scientific, cat. 35050061), 0.1 mg/mL primocin (InvivoGen, San Diego, CA, cat. ant-pm-2), 10% defined fetal bovine serum, heat inactivated (HyClone Laboratories Inc., Logan, UT, cat. SH30070.03HI), 50% L-WRN conditioned media (ATCC, cat. CRL-3276), 1.25 mM N-Acetyl-L-cysteine (Sigma-Aldrich, cat. A9165), 10 mM nicotinamide (Sigma-Aldrich, cat. N0636), 1X B-27 supplement (Thermo Fisher Scientific, cat. 17504044), 1X N-2 supplement (Thermo Fisher Scientific, cat. 17502048), and 10 microM Y-27632 dihydrochloride (Tocris Bioscience, Bristol, United Kingdom, cat. 1254). The 624824-186-R-J2-PDC line was cultured in 6C/Colon 1B media, which includes all 6A media components plus 50 ng/mL human EGF recombinant protein (Thermo Fisher Scientific, cat. PHG0311). […]

[1] = second compound 0.0316 µM, first compound 0.0316 µM
[2] = second compound 0.0316 µM, first compound 0.1 µM
[3] = second compound 0.0316 µM, first compound 0.316 µM
[4] = second compound 0.0316 µM, first compound 1 µM
[5] = second compound 0.0316 µM, first compound 3.16 µM
[6] = second compound 0.0316 µM, first compound 10 µM
[7] = second compound 0.1 µM, first compound 0.0316 µM
[8] = second compound 0.1 µM, first compound 0.1 µM
[9] = second compound 0.1 µM, first compound 0.316 µM
[10] = second compound 0.1 µM, first compound 1 µM
[11] = second compound 0.1 µM, first compound 3.16 µM
[12] = second compound 0.1 µM, first compound 10 µM
[13] = second compound 0.316 µM, first compound 0.0316 µM
[14] = second compound 0.316 µM, first compound 0.1 µM
[15] = second compound 0.316 µM, first compound 0.316 µM
[16] = second compound 0.316 µM, first compound 1 µM
[17] = second compound 0.316 µM, first compound 3.16 µM
[18] = second compound 0.316 µM, first compound 10 µM
[19] = second compound 1 µM, first compound 0.0316 µM
[20] = second compound 1 µM, first compound 0.1 µM
[21] = second compound 1 µM, first compound 0.316 µM
[22] = second compound 1 µM, first compound 1 µM
[23] = second compound 1 µM, first compound 3.16 µM
[24] = second compound 1 µM, first compound 10 µM
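Note: spheroids exposed to agents for 7 days before the viability read.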

- IC50 (second compound 0.0316 µM): > 10000 nM
- IC50 (second compound 0.1 µM): > 10000 nM
- IC50 (second compound 0.316 µM): 8990 nM
- IC50 (second compound 1 µM): 7690 nM
- IC50 (second compound 3.16 µM): 6400 nM
- IC50 (second compound 10 µM): < 31.6 nM
SMILES: CC1(C)CCC(CN2CCN(c3ccc(C(=O)NS(=O)(=O)c4ccc(NCC5CCOCC5)c([N+](=O)[O-])c4)c(Oc4cnc5[nH]ccc5c4)c3)CC2)=C(c2ccc(Cl)cc2)C1 + CC(Nc1ncnc2nc[nH]c12)c1cc2cccc(Cl)c2c(=O)n1-c1ccccc1
- viability, T/C [1]: 93.1%
- viability, T/C [2]: 87.2%
- viability, T/C [3]: 93.8%
- viability, T/C [4]: 87.7%
- viability, T/C [5]: 87%
- viability, T/C [6]: 50.8%
- viability, T/C [7]: 97%
- viability, T/C [8]: 84.3%
- viability, T/C [9]: 91.7%
- viability, T/C [10]: 97.5%
- viability, T/C [11]: 90.8%
- viability, T/C [12]: 52%
- viability, T/C [13]: 94.7%
- viability, T/C [14]: 96.2%
- viability, T/C [15]: 92%
- viability, T/C [16]: 88%
- viability, T/C [17]: 76.6%
- viability, T/C [18]: 46.9%
- viability, T/C [19]: 85.2%
- viability, T/C [20]: 85.8%
- viability, T/C [21]: 88%
- viability, T/C [22]: 79.3%
- viability, T/C [23]: 70.1%
- viability, T/C [24]: 44.2%
- viability, T/C (second compound 3.16 µM, first compound 0.0316 µM): 62.6%
- viability, T/C (second compound 3.16 µM, first compound 0.1 µM): 76%
- viability, T/C (second compound 3.16 µM, first compound 0.316 µM): 62.6%
- viability, T/C (second compound 3.16 µM, first compound 1 µM): 65.7%
- viability, T/C (second compound 3.16 µM, first compound 3.16 µM): 59.2%
- viability, T/C (second compound 3.16 µM, first compound 10 µM): 44.1%
- viability, T/C (second compound 10 µM, first compound 0.0316 µM): 49%
- viability, T/C (second compound 10 µM, first compound 0.1 µM): 52.6%
- viability, T/C (second compound 10 µM, first compound 0.316 µM): 46.3%
- viability, T/C (second compound 10 µM, first compound 1 µM): 40.3%
- viability, T/C (second compound 10 µM, first compound 3.16 µM): 46.1%
- viability, T/C (second compound 10 µM, first compound 10 µM): 28.3%

- IC50 (second compound 0.00316 µM): 285 nM
- IC50 (second compound 0.01 µM): 455 nM
- IC50 (second compound 0.0316 µM): 223 nM
- IC50 (second compound 0.1 µM): < 31.6 nM
- IC50 (second compound 0.316 µM): < 31.6 nM
- IC50 (second compound 1 µM): < 31.6 nM
SMILES: Cn1ncc(Cl)c1-c1cc(C(=O)NC(CN)Cc2cccc(F)c2)sc1Cl (centres undefined) + CC(Nc1ccc2c(c1)OCCn1cc(N3C(=O)OCC3C(F)F)nc1-2)C(N)=O
- viability, T/C (second compound 0.00316 µM, first compound 0.0316 µM): 82.8%
- viability, T/C (second compound 0.00316 µM, first compound 0.1 µM): 69.4%
- viability, T/C (second compound 0.00316 µM, first compound 0.316 µM): 51.2%
- viability, T/C (second compound 0.00316 µM, first compound 1 µM): 28.9%
- viability, T/C (second compound 0.00316 µM, first compound 3.16 µM): 10.6%
- viability, T/C (second compound 0.00316 µM, first compound 10 µM): 87.3%
- viability, T/C (second compound 0.01 µM, first compound 0.0316 µM): 88.9%
- viability, T/C (second compound 0.01 µM, first compound 0.1 µM): 90.2%
- viability, T/C (second compound 0.01 µM, first compound 0.316 µM): 52.5%
- viability, T/C (second compound 0.01 µM, first compound 1 µM): 27.2%
- viability, T/C (second compound 0.01 µM, first compound 3.16 µM): 10.3%
- viability, T/C (second compound 0.01 µM, first compound 10 µM): 96.1%
- viability, T/C [1]: 67%
- viability, T/C [2]: 63.6%
- viability, T/C [3]: 43.2%
- viability, T/C [4]: 21.7%
- viability, T/C [5]: 8.53%
- viability, T/C [6]: 64.1%
- viability, T/C [7]: 43.8%
- viability, T/C [8]: 44%
- viability, T/C [9]: 30.7%
- viability, T/C [10]: 15.2%
- viability, T/C [11]: 7.17%
- viability, T/C [12]: 51.4%
- viability, T/C [13]: 23.5%
- viability, T/C [14]: 25.2%
- viability, T/C [15]: 18.6%
- viability, T/C [16]: 11%
- viability, T/C [17]: 5.52%
- viability, T/C [18]: 21.4%
- viability, T/C [19]: 13.5%
- viability, T/C [20]: 12.6%
- viability, T/C [21]: 11.8%
- viability, T/C [22]: 8.52%
- viability, T/C [23]: 5.53%
- viability, T/C [24]: 13.3%
